Experimental data taken from ChEMBL document CHEMBL1221207, “Expanding the promiscuity of a natural-product glycosyltransferase by directed evolution” (Nat Chem Biol, 2007).

Experiments:
[1] = biological target: T1, Oleandomycin glycosyltransferase (Streptomyces antibioticus) (UniProt Q53685); assay: Activity at Streptomyces antibioticus wild-type OleD assessed as as rate of glucoside formation measured as nanomoles of product formed per minute per mg of enzyme
T1 sequence (whole entry): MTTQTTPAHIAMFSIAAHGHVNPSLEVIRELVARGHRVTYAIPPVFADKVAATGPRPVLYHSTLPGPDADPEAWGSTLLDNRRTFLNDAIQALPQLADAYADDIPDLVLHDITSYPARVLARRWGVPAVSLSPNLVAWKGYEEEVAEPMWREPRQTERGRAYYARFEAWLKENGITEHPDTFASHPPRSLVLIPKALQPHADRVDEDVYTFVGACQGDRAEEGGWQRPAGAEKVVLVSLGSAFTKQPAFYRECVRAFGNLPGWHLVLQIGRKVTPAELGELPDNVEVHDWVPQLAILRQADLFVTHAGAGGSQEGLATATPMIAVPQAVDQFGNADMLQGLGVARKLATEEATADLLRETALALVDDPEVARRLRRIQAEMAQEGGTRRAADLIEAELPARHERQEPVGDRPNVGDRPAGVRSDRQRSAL

[2] = biological target: T1, Oleandomycin glycosyltransferase (Streptomyces antibioticus); assay: Activity of Streptomyces antibioticus OleD […] mutant assessed as as rate of glucoside formation measured as nanomoles of product formed per minute per mg of enzyme

Structure (SMILES): Cc1cc(=O)oc2cc(O)ccc12
- Activity [1]: 2.5 nmol/min
- Activity [2]: 6.3 nmol/min
